# Residues, ends and D or L forms follow the SMILES beside them.
# Tests used:
# IL-6 = assay: Whole blood from uremic patients stimulated ex vivo with LPS with or without peptides (non heated and heated), IL-6 ELISA; format: cell-based, human; settings: whole blood of uremic patients, LPS 1 ng/ml, 24 h; average over the tested concentrations
# Protocol: (§1) Whole blood studies with blood from uremic patients including heat sterilization experiments
# (§2) A first goal of this experiment was to test whether the three amino acid antiinflammatory peptide KPV (unpegylated and pegylated version "monopeptide") will retain its activity under conditions of steam sterilization at 125°C for 15 min used in the production process of dialysis modules. A second goal was to study the anti-inflammatory effect of alpha-MSH and the peptides in uremic patients, which represent the real clinical situation.
# (§3) To perform this experiment whole blood samples were taken from voluntary uremic patients (n=10) and subsequently stimulated ex vivo with lipopolysaccharide (LPS) with or without alpha-MSH, KPV or pegylated KPV (non heated and heated) and TNF-α and IL-6 release was determined by ELISA.
# (§4) 25 ml blood from 10 uremic patients (dialysis patients treated at the hospital in Konstanz, Germany) was drawn and blood values were analyzed immediately. Blood was 1:10 diluted with PBS buffer and each stimulation condition was performed in triplicates and incubated at 200 µl in 96 well plates. […]
# [1] = system: LPS-induced TNF-α release; assay: Ex vivo stimulation of human PBMCs with LPS (pre-incubation or co-stimulation with peptides), TNF-α ELISA of supernatants; format: cell-based; set-up: TNF-α, Donor 2 / TNF-α, Donor 3 / TNF-α, Donor 4 / TNF-α, Donor 5 / TNF-α, Donor 6 / TNF-α, MV+SD: unit not given here; settings: for TNF-α, %: % of LPS control c (100.00); for effect on LPS-induced TNF-α release ("inflammation"): pre-stimulation or co-incubation
# Protocol: Ex vivo stimulation of human peripheral blood mononuclear cells (PBMCs)
# For the stimulation of PBMCs the following concentrations were chosen: • LPS 1 ng/ml alone • α-MSH • ∘ 1µM; 10µM; 100µM • Peg-KPV (pegylated tripeptide) • ∘ 1µM; 10µM; 100µM; 1000µM
# The stimulation procedure was as described below:
# All cells were incubated for 24h and centrifuged at 1700 rpm and supernatants were used for TNF- α ELISA measurement according to manufacturer's protocols.
# TNF-α = assay: Whole blood from uremic patients stimulated ex vivo with LPS with or without peptides (non heated and heated), TNF-α ELISA; format: cell-based, human; settings: whole blood of uremic patients, LPS 1 ng/ml, 24 h; average over the tested concentrations
# Protocol: as §1, §2, §3, §4
# [2] = LPS 3 h pre-incubation, then LPS+peptide 24h, peptide 1 µM
# [3] = LPS 3 h pre-incubation, then LPS+peptide 24h, peptide 10 µM
# [4] = LPS 3 h pre-incubation, then LPS+peptide 24h, peptide 100 µM
# [5] = LPS 3 h pre-incubation, then LPS+peptide 24h, peptide 1000 µM
# [6] = LPS + peptide simultaneously, 24h, peptide 1 µM
# [7] = LPS + peptide simultaneously, 24h, peptide 10 µM
# [8] = LPS + peptide simultaneously, 24h, peptide 100 µM
# [9] = LPS + peptide simultaneously, 24h, peptide 1000 µM
# [10] = mean of donors, LPS 3 h pre-incubation, then LPS+peptide 24h, peptide 1 µM
# [11] = mean of donors, LPS 3 h pre-incubation, then LPS+peptide 24h, peptide 10 µM
# [12] = mean of donors, LPS 3 h pre-incubation, then LPS+peptide 24h, peptide 100 µM
# [13] = mean of donors, LPS + peptide simultaneously, 24h, peptide 1 µM
# [14] = mean of donors, LPS + peptide simultaneously, 24h, peptide 10 µM
# [15] = mean of donors, LPS + peptide simultaneously, 24h, peptide 100 µM
compound,measurement,setting,value
"CC(=O)N[C@@H](CCCCN)C(=O)N1CCC[C@H]1C(=O)N[C@H](C(N)=O)C(C)C [KPV, Ac-Lys-Pro-Val-NH2] (Ac-Lys-Pro-Val-NH2)",average inhibition for IL-6,IL-6,around 20%
same,"TNF-α, %",[1]; [2],85.28%
same,"TNF-α, %",[1]; [3],83.53%
same,"TNF-α, %",[1]; [4],73.40%
same,"TNF-α, %",[1]; [5],38.98%
same,"TNF-α, %",[1]; [6],78.64%
same,"TNF-α, %",[1]; [7],74.30%
same,"TNF-α, %",[1]; [8],65.76%
same,"TNF-α, %",[1]; [9],25.35%
same,"TNF-α, Donor 2",[1]; [2],4025
same,"TNF-α, Donor 3",[1]; [2],4554
same,"TNF-α, Donor 4",[1]; [2],3541
same,"TNF-α, Donor 5",[1]; [2],2301
same,"TNF-α, Donor 6",[1]; [2],4299
same,"TNF-α, Donor 2",[1]; [3],4126
same,"TNF-α, Donor 3",[1]; [3],4387
same,"TNF-α, Donor 4",[1]; [3],3666
same,"TNF-α, Donor 5",[1]; [3],2209
same,"TNF-α, Donor 6",[1]; [3],3949
same,"TNF-α, Donor 2",[1]; [4],3542
same,"TNF-α, Donor 3",[1]; [4],5022
same,"TNF-α, Donor 4",[1]; [4],2886
same,"TNF-α, Donor 5",[1]; [4],1931
same,"TNF-α, Donor 6",[1]; [4],3731
same,"TNF-α, Donor 3",[1]; [5],1816
same,"TNF-α, Donor 4",[1]; [5],1494
same,"TNF-α, Donor 5",[1]; [5],1054
same,"TNF-α, Donor 6",[1]; [5],2482
same,"TNF-α, Donor 2",[1]; [6],3426
same,"TNF-α, Donor 3",[1]; [6],3955
same,"TNF-α, Donor 4",[1]; [6],3702
same,"TNF-α, Donor 5",[1]; [6],1893
same,"TNF-α, Donor 6",[1]; [6],3541
same,"TNF-α, Donor 2",[1]; [7],3154
same,"TNF-α, Donor 3",[1]; [7],3907
same,"TNF-α, Donor 4",[1]; [7],3369
same,"TNF-α, Donor 5",[1]; [7],1706
same,"TNF-α, Donor 6",[1]; [7],3470
same,"TNF-α, Donor 2",[1]; [8],2562
same,"TNF-α, Donor 3",[1]; [8],3505
same,"TNF-α, Donor 4",[1]; [8],3077
same,"TNF-α, Donor 5",[1]; [8],1525
same,"TNF-α, Donor 6",[1]; [8],3142
same,"TNF-α, Donor 3",[1]; [9],931
same,"TNF-α, Donor 4",[1]; [9],934
same,"TNF-α, Donor 5",[1]; [9],594
same,"TNF-α, Donor 6",[1]; [9],1801
same,"TNF-α, MV+SD","[1]; mean of donors (Donor 2 not done), LPS 3 h pre-incubation, then LPS+peptide 24h, peptide 1000 µM",1711.5
same,"TNF-α, MV+SD","[1]; mean of donors (Donor 2 not done), LPS + peptide simultaneously, 24h, peptide 1000 µM",1065
same,"TNF-α, MV+SD",[1]; [10],3744
same,"TNF-α, MV+SD",[1]; [11],3667.4
same,"TNF-α, MV+SD",[1]; [12],3222.4
same,"TNF-α, MV+SD",[1]; [13],3303.4
same,"TNF-α, MV+SD",[1]; [14],3121.2
same,"TNF-α, MV+SD",[1]; [15],2762.2
same,"effect on LPS-induced TNF-α release (""inflammation"")",[1],inhibitory effect
same,average inhibition for TNF-α,TNF-α,around 30%
α-MSH [α-MSH Sigma],"TNF-α, %",[1]; [2],89.62%
same,"TNF-α, %",[1]; [3],81.56%
same,"TNF-α, %",[1]; [4],54.57%
same,"TNF-α, %",[1]; [6],70.97%
same,"TNF-α, %",[1]; [7],61.67%
same,"TNF-α, %",[1]; [8],32.86%
same,"TNF-α, Donor 2",[1]; [2],5005
same,"TNF-α, Donor 3",[1]; [2],4345
same,"TNF-α, Donor 4",[1]; [2],3968
same,"TNF-α, Donor 5",[1]; [2],2070
same,"TNF-α, Donor 6",[1]; [2],4286
same,"TNF-α, Donor 2",[1]; [3],4193
same,"TNF-α, Donor 3",[1]; [3],3883
same,"TNF-α, Donor 4",[1]; [3],3674
same,"TNF-α, Donor 5",[1]; [3],1799
same,"TNF-α, Donor 6",[1]; [3],4356
same,"TNF-α, Donor 2",[1]; [4],3009
same,"TNF-α, Donor 3",[1]; [4],2886
same,"TNF-α, Donor 4",[1]; [4],2073
same,"TNF-α, Donor 5",[1]; [4],942
same,"TNF-α, Donor 6",[1]; [4],2069
same,"TNF-α, Donor 2",[1]; [6],4098
same,"TNF-α, Donor 3",[1]; [6],3273
same,"TNF-α, Donor 4",[1]; [6],3116
same,"TNF-α, Donor 5",[1]; [6],1319
same,"TNF-α, Donor 6",[1]; [6],3100
same,"TNF-α, Donor 2",[1]; [7],3734
same,"TNF-α, Donor 3",[1]; [7],2776
same,"TNF-α, Donor 4",[1]; [7],2568
same,"TNF-α, Donor 5",[1]; [7],1237
same,"TNF-α, Donor 6",[1]; [7],2638
same,"TNF-α, Donor 2",[1]; [8],1207
same,"TNF-α, Donor 3",[1]; [8],2337
same,"TNF-α, Donor 4",[1]; [8],1248
same,"TNF-α, Donor 5",[1]; [8],713
same,"TNF-α, Donor 6",[1]; [8],1386
same,"TNF-α, MV+SD",[1]; [10],3934.8
same,"TNF-α, MV+SD",[1]; [11],3581
same,"TNF-α, MV+SD",[1]; [12],2395.8
same,"TNF-α, MV+SD",[1]; [13],2981.2
same,"TNF-α, MV+SD",[1]; [14],2590.6
same,"TNF-α, MV+SD",[1]; [15],1380.2
same,"effect on LPS-induced TNF-α release (""inflammation"")",[1],inhibitory effect
